Measured values published in ChEMBL document CHEMBL5543097, “Synthesis and structure-activity relationships of novel 14-membered 2-fluoro ketolides with structural modification at the C11 position” (Eur J Med Chem, 2024).
Values after ≈ are worked out from the molar mass of the structure shown.

Legend:
[1] = test system: Staphylococcus epidermidis; assay: Antibacterial activity against erythromycin-resistant Staphylococcus epidermidis 19-8 assessed as inhibition of visible bacterial growth incubated for 18 hrs by broth microdilution method; type: functional
[2] = Cytotoxicity against mouse AML12 cells assessed as reduction in cell viability incubated for 48 hrs by MTT assay; type: toxicity, cell-based
[3] = test system: Staphylococcus epidermidis; assay: Antibacterial activity against erythromycin-resistant Staphylococcus epidermidis 19-9 assessed as inhibition of visible bacterial growth incubated for 18 hrs by broth microdilution method; type: functional
[4] = test system: Streptococcus pneumoniae; assay: Antibacterial activity against erythromycin-resistant Streptococcus pneumoniae SPN19-13 assessed as inhibition of visible bacterial growth incubated for 18 hrs by broth microdilution method; type: functional
[5] = test system: Streptococcus pyogenes; assay: Antibacterial activity against erythromycin-resistant Streptococcus pyogenes ATCC 19615 assessed as inhibition of visible bacterial growth incubated for 18 hrs by broth microdilution method; type: functional
[6] = test system: Streptococcus agalactiae; assay: Antibacterial activity against erythromycin-resistant Streptococcus agalactiae 19-9 assessed as inhibition of visible bacterial growth incubated for 18 hrs by broth microdilution method; type: functional
[7] = test system: Haemophilus influenzae; assay: Antibacterial activity against Haemophilus influenzae HIN 19-15 assessed as inhibition of bacterial growth incubated for 20 to 24 hrs by CLSI based broth microdilution method; type: functional; settings: time 20-24 hrs
[8] = test system: Staphylococcus epidermidis; assay: Antibacterial activity against erythromycin-resistant Staphylococcus epidermidis 19-5 assessed as inhibition of visible bacterial growth incubated for 18 hrs by broth microdilution method; type: functional
[9] = test system: Haemophilus influenzae; assay: Antibacterial activity against Haemophilus influenzae HIN 19-18 assessed as inhibition of bacterial growth incubated for 20 to 24 hrs by CLSI based broth microdilution method; type: functional; settings: HIN 19-18, time 20-24 hrs
[10] = test system: Streptococcus pneumoniae; assay: Antibacterial activity against erythromycin-resistant Streptococcus pneumoniae SPN19-8 assessed as inhibition of visible bacterial growth incubated for 18 hrs by broth microdilution method; type: functional
[11] = test system: Staphylococcus epidermidis; assay: Antibacterial activity against erythromycin-resistant Staphylococcus epidermidis 19-11 assessed as inhibition of visible bacterial growth incubated for 18 hrs by broth microdilution method; type: functional
[12] = test system: Haemophilus influenzae; assay: Antibacterial activity against Haemophilus influenzae HIN 20-18 assessed as inhibition of bacterial growth incubated for 20 to 24 hrs by CLSI based broth microdilution method; type: functional; settings: time 20-24 hrs
[13] = test system: Moraxella catarrhalis; assay: Antibacterial activity against Moraxella catarrhalis BCA 19-5 assessed as inhibition of bacterial growth incubated for 24 hrs by CLSI based broth microdilution method; type: functional; settings: Moraxella catarrhalis, BCA 19-5, 24 h, read-out: MIC
[14] = test system: Staphylococcus epidermidis; assay: Antibacterial activity against erythromycin-resistant Staphylococcus epidermidis 19-6 assessed as inhibition of visible bacterial growth incubated for 18 hrs by broth microdilution method; type: functional
[15] = test system: Streptococcus pneumoniae; assay: Antibacterial activity against erythromycin-resistant Streptococcus pneumoniae SPN19-14 assessed as inhibition of visible bacterial growth incubated for 18 hrs by broth microdilution method; type: functional
[16] = test system: Moraxella catarrhalis; assay: Antibacterial activity against Moraxella catarrhalis BCA 19-6 assessed as inhibition of bacterial growth incubated for 24 hrs by CLSI based broth microdilution method; type: functional; settings: Moraxella catarrhalis, BCA 19-6, 24 h, read-out: MIC
[17] = test system: Staphylococcus epidermidis; assay: Antibacterial activity against erythromycin-resistant Staphylococcus epidermidis 19-4 assessed as inhibition of visible bacterial growth incubated for 18 hrs by broth microdilution method; type: functional
[18] = test system: Moraxella catarrhalis; assay: Antibacterial activity against Moraxella catarrhalis BCA 19-31 assessed as inhibition of bacterial growth incubated for 24 hrs by CLSI based broth microdilution method; type: functional; settings: BCA 19-31, 24 h
[19] = test system: Streptococcus agalactiae; assay: Antibacterial activity against erythromycin-resistant Streptococcus agalactiae 19-8 assessed as inhibition of visible bacterial growth incubated for 18 hrs by broth microdilution method; type: functional

Row | SMILES | MIC [1] [µg/mL] | CC50 at 48 h [2] [µM] | MIC [3] [µg/mL] | MIC [4] [µg/mL] | MIC [5] [µg/mL] | MIC [6] [µg/mL] | MIC [7] [µg/mL] | MIC [8] [µg/mL] | MIC [9] [µg/mL] | MIC [10] [µg/mL] | MIC [11] [µg/mL] | MIC [12] [µg/mL] | MIC [13] [µg/mL] | MIC [14] [µg/mL] | MIC [15] [µg/mL] | MIC [16] [µg/mL] | MIC [17] [µg/mL] | MIC [18] [µg/mL] | MIC [19] [µg/mL]
1 | CC[C@H]1OC(=O)[C@@](C)(F)C(=O)[C@H](C)[C@@H](O[C@@H]2O[C@H](C)C[C@H](N(C)C)[C@H]2O)[C@](C)(OC)C[C@@H](C)C(=O)[C@H](C)[C@H]2N(CCCOC(=O)Nc3cccc(Cl)c3)C(=O)O[C@]12C | < 0.03 | 43.3 | 0.125 (≈ 0.148 µM) | 0.125 (≈ 0.148 µM) | < 0.03 | 0.5 (≈ 0.594 µM) | 8 (≈ 9.5 µM) | < 0.03 | 4 (≈ 4.75 µM) | 0.125 (≈ 0.148 µM) | < 0.03 | 16 (≈ 19 µM) | 0.125 (≈ 0.148 µM) | < 0.03 | 0.125 (≈ 0.148 µM) | 2.25 (≈ 2.67 µM) | 0.03 (≈ 0.0356 µM) |  | 
2 | CC[C@H]1OC(=O)[C@@](C)(F)C(=O)[C@H](C)[C@@H](O[C@@H]2O[C@H](C)C[C@H](N(C)C)[C@H]2O)[C@](C)(OC)C[C@@H](C)C(=O)[C@H](C)[C@H]2N(CCCOC(=O)Nc3cccc(C(F)(F)F)c3)C(=O)O[C@]12C | 0.5 (≈ 0.571 µM) | 12.4 | 1 (≈ 1.14 µM) | 2 (≈ 2.28 µM) | < 0.03 | 8 (≈ 9.13 µM) | 64 (≈ 73.1 µM) | 0.5 (≈ 0.571 µM) | 64 (≈ 73.1 µM) | 2 (≈ 2.28 µM) | 0.25 (≈ 0.285 µM) |  | 1 (≈ 1.14 µM) | 0.5 (≈ 0.571 µM) | 2 (≈ 2.28 µM) | 1 (≈ 1.14 µM) | 0.5 (≈ 0.571 µM) | 4 (≈ 4.57 µM) | < 0.03
3 | CC[C@H]1OC(=O)[C@@](C)(F)C(=O)[C@H](C)[C@@H](O[C@@H]2O[C@H](C)C[C@H](N(C)C)[C@H]2O)[C@](C)(OC)C[C@@H](C)C(=O)[C@H](C)[C@H]2N(CCCOC(=O)Nc3ccccc3OC)C(=O)O[C@]12C | 0.06 (≈ 0.0716 µM) | 83.8 | 0.25 (≈ 0.298 µM) | 0.125 (≈ 0.149 µM) | < 0.03 | 0.5 (≈ 0.597 µM) | 8 (≈ 9.55 µM) | 0.06 (≈ 0.0716 µM) |  | 0.125 (≈ 0.149 µM) | 0.125 (≈ 0.149 µM) |  | 11.1 (≈ 13.2 µM) | 0.125 (≈ 0.149 µM) | 0.125 (≈ 0.149 µM) | 0.41 (≈ 0.489 µM) | 0.06 (≈ 0.0716 µM) | 0.125 (≈ 0.149 µM) | < 0.03
4 | CC[C@H]1OC(=O)[C@@](C)(F)C(=O)[C@H](C)[C@@H](O[C@@H]2O[C@H](C)C[C@H](N(C)C)[C@H]2O)[C@](C)(OC)C[C@@H](C)C(=O)[C@H](C)[C@H]2N(CCCOC(=O)Nc3ccc(-c4ccccc4)cc3)C(=O)O[C@]12C | 0.25 (≈ 0.283 µM) | 20.7 | 0.5 (≈ 0.566 µM) | 1 (≈ 1.13 µM) | < 0.03 | 4 (≈ 4.52 µM) | 32 (≈ 36.2 µM) | < 0.03 | 8 (≈ 9.05 µM) | 1 (≈ 1.13 µM) | 0.5 (≈ 0.566 µM) |  |  | 1 (≈ 1.13 µM) | 0.125 (≈ 0.141 µM) | 1 (≈ 1.13 µM) | 0.125 (≈ 0.141 µM) | 1 (≈ 1.13 µM) | < 0.03
5 | CC[C@H]1OC(=O)[C@@](C)(F)C(=O)[C@H](C)[C@@H](O[C@@H]2O[C@H](C)C[C@H](N(C)C)[C@H]2O)[C@](C)(OC)C[C@@H](C)C(=O)[C@H](C)[C@H]2N(CCCOC(=O)Nc3ccc(Cl)cc3)C(=O)O[C@]12C | 0.03 (≈ 0.0356 µM) | 26 | 0.125 (≈ 0.148 µM) | 0.125 (≈ 0.148 µM) | < 0.03 | 1 (≈ 1.19 µM) | 8 (≈ 9.5 µM) | < 0.03 | 8 (≈ 9.5 µM) | 0.25 (≈ 0.297 µM) | < 0.03 | 16 (≈ 19 µM) | 9.12 (≈ 10.8 µM) | < 0.03 | 0.125 (≈ 0.148 µM) | 0.25 (≈ 0.297 µM) | 0.03 (≈ 0.0356 µM) | 11.1 (≈ 13.2 µM) | 
6 | CC[C@H]1OC(=O)[C@H](C)C(=O)[C@H](C)[C@@H](O[C@@H]2O[C@H](C)C[C@H](N(C)C)[C@H]2O)[C@](C)(OC)C[C@@H](C)C(=O)[C@H](C)[C@H]2N(CCCOC(=O)Nc3ccc(C(F)(F)F)cc3)C(=O)O[C@]12C | 0.06 (≈ 0.0699 µM) | 73.8 | 0.5 (≈ 0.583 µM) | 0.125 (≈ 0.146 µM) | < 0.03 | 0.5 (≈ 0.583 µM) | 4 (≈ 4.66 µM) | 0.06 (≈ 0.0699 µM) |  | 0.125 (≈ 0.146 µM) | 0.125 (≈ 0.146 µM) |  |  | 0.25 (≈ 0.291 µM) | 0.125 (≈ 0.146 µM) |  | 0.125 (≈ 0.146 µM) | 0.06 (≈ 0.0699 µM) | < 0.03
